These are literature values, as cited in patent US10335411B2, “Administration of ubiquitin-activating enzyme inhibitor and radiation” (Millennium Pharmaceuticals, Inc., priority 2014, dated 2019).

Series [1] has as its system leukemia and myeloma cell lines. Particulars: Xu et al., 2010; cited from earlier work.
Series [2] concerns mouse acute myeloid leukemia (AML model). To be noted: Xu et al., 2010; cited from earlier work.

On to `O=C1NN(c2ccc(F)c(Cl)c2)C(=O)/C1=C\c1ccc([N+](=O)[O-])o1` [PYZD-4409], for which, in series [1], the cell death result is listed as “induced cell death”. Moreover, the anti-tumor activity entry in series [2] is on record as “induced anti-tumor activity”.
